The experiment has as its target T1, human CXCR6 (Homo sapiens, UniProt O00574).
T1 construct: expressed in transfected cells
As to the kind of experiment: Radioligand Binding Assay (125I-CXCL16 displacement). Particulars: L1.2 cells stably transfected with human CXCR6 cDNA, 0.1 nM 125I-CXCL16, 4° C., three-hour incubation; read-out: Potency (IC50). In outline:
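L1.2 cells stably expressing human CXCR6 incubated 3 h at 4 °C in HBSS/0.1% BSA with 0.1 nM 125I-CXCL16 and graded compound concentrations. Bound radioactivity collected by filtration and counted; IC50 from 3-parameter nonlinear regression.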
T1 sequence (O00574 whole entry): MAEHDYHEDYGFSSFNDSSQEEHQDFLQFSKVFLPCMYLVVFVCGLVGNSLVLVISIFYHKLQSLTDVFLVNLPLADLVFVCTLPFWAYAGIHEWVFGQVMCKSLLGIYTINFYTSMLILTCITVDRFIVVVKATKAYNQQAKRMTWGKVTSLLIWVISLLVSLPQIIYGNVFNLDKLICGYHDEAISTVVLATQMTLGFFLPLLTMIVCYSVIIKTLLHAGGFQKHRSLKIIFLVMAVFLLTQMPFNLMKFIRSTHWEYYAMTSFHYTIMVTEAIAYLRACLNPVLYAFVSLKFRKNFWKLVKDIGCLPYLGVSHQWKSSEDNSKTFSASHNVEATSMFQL
Regarding `CCOc1cc(NC(=O)[C@H](CO)C(C)C)ccc1S(=O)(=O)Nc1cccc(OC(F)(F)F)c1` [Example 1.139], the IC50 is at most 200 nM.
`COc1cc(NC(=O)C2CCC(O)CC2)ccc1S(=O)(=O)Nc1cccc(C(F)(F)F)c1` (centres unmarked) [Example 1.140]: the IC50 is 2000 to 20000 nM.
In the case of `Cn1nccc1C(=O)Nc1ccc(S(=O)(=O)Nc2cccc(C(F)(F)F)c2)c(Cl)c1` [Example 1.141] it was 200 to 750 nM; in that of `CCOc1cc(NC(=O)[C@@H](CO)C(C)C)ccc1S(=O)(=O)Nc1ccc(C)c(Cl)c1` [Example 1.142], at most 200 nM.
Then `COCc1cc(NC(=O)[C@@H](CO)c2ccccc2)ccc1S(=O)(=O)Nc1cccc(OC(F)(F)F)c1` [Example 1.143], with at most 200 nM; and `CCOC(=O)C(C(=O)Nc1ccc(S(=O)(=O)Nc2cccc(OC(F)(F)F)c2)c(OCC)c1)C1CCCC1` (centres unmarked) [Example 1.144], with at most 200 nM; and `COc1cc(NC(=O)c2ccnn2C)ccc1S(=O)(=O)Nc1cccc(OC(C)C)c1` [Example 1.145], with 750 to 2000 nM.
Then `C=Cc1ccc(NS(=O)(=O)c2ccc(NC(=O)[C@@H](CO)C3CC3)cc2OCC)cc1C` [Example 1.146], with at most 200 nM.
With `Cc1cc(NC(=O)N2CCOCC2)ccc1S(=O)(=O)Nc1cccc(C(F)(F)F)c1` [Example 1.148], the 50% inhibitory concentration (IC50) fell in the range of 2000 to 20000 nM.
In the case of `CCOc1cc(NC(=O)c2ccc(C)nc2)ccc1S(=O)(=O)Nc1cccc(OC(F)(F)F)c1` [Example 1.149] it was at most 200 nM.
As to `CCc1cc(NC(=O)[C@@H](CO)C2CC2)ccc1S(=O)(=O)Nc1cccc(OC(F)(F)F)c1` [Example 1.150], the IC50 was at most 200 nM.
In the case of `COc1cc(NC(=O)c2ccnn2C)ccc1S(=O)(=O)Nc1ccc(C)c(OC(F)(F)F)c1` [Example 1.151] it was at most 200 nM; in that of `CCOc1cc(NC(=O)C2CCC(=O)C2)ccc1S(=O)(=O)Nc1cccc(OC(F)(F)F)c1` (centres unmarked) [Example 1.152], 200 to 750 nM.
Consider `COc1cc(NC(=O)c2ccnn2C)ccc1S(=O)(=O)Nc1cccc(C(F)(F)F)c1` [Example 1.153], for which the IC50 was in the range of 200 to 750 nM.
For `CCOc1cc(NC(=O)[C@@H](O)C(C)C)ccc1S(=O)(=O)Nc1ccc(Cl)c(OC)c1` [Example 1.154], the half-inhibitory concentration (IC50) is 200 to 750 nM.
Then `CCOc1cc(NC(=O)[C@@H](CO)C(C)C)ccc1S(=O)(=O)Nc1cccc(C(C)C)c1` [Example 1.155], with at most 200 nM; and `CCCCOc1cc(NC(=O)c2ccnn2C)ccc1S(=O)(=O)Nc1cccc(C(F)(F)F)c1` [Example 1.156], with 2000 to 20000 nM; and `CCOc1cc(NC(=O)c2ccnn2C)ccc1S(=O)(=O)Nc1cccc(OC(F)(F)F)c1` [Example 1.157], with at most 200 nM.
In the case of `CCOc1cc(NC(=O)[C@H](N)C(C)C)ccc1S(=O)(=O)Nc1cccc(OC(F)(F)F)c1` [Example 1.158] it was at most 200 nM; in that of `CCOc1cc(NC(=O)[C@@H](CO)C(C)C)ccc1S(=O)(=O)Nc1cccc(Cl)c1C(F)(F)F` [Example 1.159], 2000 to 20000 nM.
In the case of `CCOc1cc(NC(=O)[C@H]2CC=CC[C@H]2C(=O)O)ccc1S(=O)(=O)Nc1cccc(OC(F)(F)F)c1` [Example 1.160] it was at most 200 nM; in that of `CCOc1cc(NC(=O)C2CCN(C(C)=O)CC2)ccc1S(=O)(=O)Nc1cccc(OC(F)(F)F)c1` [Example 1.161], 2000 to 20000 nM; in that of `CCOc1cc(NC(=O)c2cccnc2N)ccc1S(=O)(=O)Nc1cccc(OC(F)(F)F)c1` [Example 1.162], at most 200 nM.
For `CCc1cc(NC(=O)[C@@H](CO)c2ccccc2)ccc1S(=O)(=O)Nc1cccc(OC(F)(F)F)c1` [Example 1.163], the 50% inhibitory concentration (IC50) is at most 200 nM.
For `CCOc1cc(NC(=O)C(O)C(C)O)ccc1S(=O)(=O)Nc1cccc(OC(F)(F)F)c1` (centres unmarked) [Example 1.164], the IC50 lay within 750 to 2000 nM.
In the case of `CC(C)[C@H](O)C(=O)Nc1ccc(S(=O)(=O)Nc2cccc(OC(F)(F)F)c2)c(C#N)c1` [Example 1.165], the 50% inhibitory concentration (IC50) lay in the range of 200 to 750 nM.
Then `CCOc1cc(NC(=O)CC(C)(C)O)ccc1S(=O)(=O)Nc1cccc(OC(F)(F)F)c1` [Example 1.166], with 750 to 2000 nM.
In the case of `CCOc1cc(NC(=O)[C@@H](O)c2ccccc2)ccc1S(=O)(=O)Nc1cccc(OC(F)(F)F)c1` [Example 1.168] it was at most 200 nM.
For the compound `CCOc1cc(NC(=O)[C@H]2CCCC[C@@H]2O)ccc1S(=O)(=O)Nc1cccc(OC(F)(F)F)c1` [Example 1.169], the IC50 was in the range of 750 to 2000 nM.
With `CCOc1cc(NC(=O)[C@@H](CO)c2ccccc2)ccc1S(=O)(=O)Nc1cccc(C(C)(C)C)c1` [Example 1.170], the IC50 was at most 200 nM.
Then `CCOc1cc(NC(=O)c2cncnc2)ccc1S(=O)(=O)Nc1cccc(OC(F)(F)F)c1` [Example 1.171], with at most 200 nM.
Regarding `CCOc1cc(NC(=O)C2CC=CC[C@@H]2O)ccc1S(=O)(=O)Nc1ccc(C)c(OC(F)(F)F)c1` (some centres unmarked) [Example 1.172], the IC50 was at most 200 nM.
In the case of `CCOc1cc(NC(=O)[C@H]2CC=CC[C@H]2O)ccc1S(=O)(=O)Nc1cccc(OC(F)(F)F)c1` [Example 1.173] it was 200 to 750 nM; in that of `Cc1cc(NC(=O)[C@@H](CO)C(C)C)ccc1S(=O)(=O)Nc1cccc(OC(F)(F)F)c1` [Example 1.174], at most 200 nM; in that of `CCOc1cc(NC(=O)[C@@H](CO)c2ccccc2)ccc1S(=O)(=O)Nc1ccc(Cl)c(Cl)c1` [Example 1.175], 200 to 750 nM.
In the case of `C=C(C)CC(C(=O)O)C(=O)Nc1ccc(S(=O)(=O)Nc2cccc(OC(F)(F)F)c2)c(OCC)c1` (centres unmarked) [Example 1.176] it was at most 200 nM; in that of `CCOc1cc(NC(=O)C(O)C2CCCC2)ccc1S(=O)(=O)Nc1cccc(OC(F)(F)F)c1` (centres unmarked) [Example 1.177], at most 200 nM; in that of `CCOc1cc(NC(=O)[C@@H](CO)c2ccccc2)ccc1S(=O)(=O)Nc1ccc(Cl)c(C(F)(F)F)c1` [Example 1.178], 200 to 750 nM.
In the case of `COc1cc(NC(=O)C2CC3C=CC2O3)ccc1S(=O)(=O)Nc1cccc(OC(F)(F)F)c1` (centres unmarked) [Example 1.179] it was 200 to 750 nM.
With `C=C(C)CC(CCO)C(=O)Nc1ccc(S(=O)(=O)Nc2cccc(OC(F)(F)F)c2)c(OCC)c1` (centres unmarked) [Example 1.180], the IC50 is at most 200 nM.
For the compound `CCOc1cc(NC(=O)[C@@H](CO)C(C)C)ccc1S(=O)(=O)Nc1cccc(C(C)(F)F)c1` [Example 1.181], the IC50 is at most 200 nM.
In the case of `CCOc1cc(NC(=O)C(O)Cc2ccccc2)ccc1S(=O)(=O)Nc1cccc(OC(F)(F)F)c1` (centres unmarked) [Example 1.182] it was at most 200 nM.
Then `CCOc1cc(NC(=O)C2CCC(O)CC2)ccc1S(=O)(=O)Nc1cccc(OC(F)(F)F)c1` (centres unmarked) [Example 1.183], with 200 to 750 nM; and `CCOc1cc(NC(=O)[C@@H](CO)c2ccccc2)ccc1S(=O)(=O)Nc1ccc(C)c(F)c1` [Example 1.184], with 750 to 2000 nM.
In the case of `CCOc1cc(NC(=O)C2CCC[C@@H]2O)ccc1S(=O)(=O)Nc1cccc(OC(F)(F)F)c1` (some centres unmarked) [Example 1.185] it was 200 to 750 nM.
As for `CCOc1cc(NC(=O)CCOC)ccc1S(=O)(=O)Nc1cccc(OC(F)(F)F)c1` [Example 1.186], the IC50 lay in the range of 750 to 2000 nM.
With `Cn1nccc1C(=O)Nc1ccc(S(=O)(=O)Nc2cccc(C(F)(F)F)c2)c(C#N)c1` [Example 1.187], the half-maximal inhibitory concentration (IC50) fell in the range of 2000 to 20000 nM.
In the case of `COCc1cc(NC(=O)[C@@H](O)C(C)C)ccc1S(=O)(=O)Nc1cccc(OC(F)(F)F)c1` [Example 1.188] it was at most 200 nM; in that of `COc1cc(NC(=O)CC2CCCO2)ccc1S(=O)(=O)Nc1cccc(C(F)(F)F)c1` (centres unmarked) [Example 1.189], 2000 to 20000 nM.
Then `CCOc1cc(NC(=O)[C@@H](CO)c2ccccc2)ccc1S(=O)(=O)Nc1cccc(Cl)c1OC` [Example 1.190], with 2000 to 20000 nM.
Then `COc1cc(NC(=O)[C@@H](CO)C(C)C)ccc1S(=O)(=O)Nc1ccc(C)c(OC(F)(F)F)c1` [Example 1.191], with at most 200 nM; and `CCOc1cc(NC(=O)C2CCN(C)CC2)ccc1S(=O)(=O)Nc1cccc(OC(F)(F)F)c1` [Example 1.192], with 2000 to 20000 nM.
For the compound `CCc1cc(NC(=O)c2ccccc2)ccc1S(=O)(=O)Nc1cccc(C(F)(F)F)c1` [Example 1.193], the half-inhibitory concentration (IC50) lay in the range of 200 to 750 nM.
Consider `COc1cc(NC(=O)[C@@H]2C=CCN2C)ccc1S(=O)(=O)Nc1cccc(C(F)(F)F)c1` [Example 1.194], for which the IC50 fell in the range of 2000 to 20000 nM.
Then `CCOc1cc(NC(=O)[C@@H](O)C(C)C)ccc1S(=O)(=O)Nc1ccc(C)c(F)c1` [Example 1.195], with 200 to 750 nM; and `O=C(Nc1ccc(S(=O)(=O)Nc2cccc(OC(F)(F)F)c2)c(Cl)c1)[C@@H](CO)c1ccccc1` [Example 1.196], with at most 200 nM.
Then `COc1cc(NC(=O)[C@@H]2C=CCN2)ccc1S(=O)(=O)Nc1cccc(C(F)(F)F)c1` [Example 1.197], with 750 to 2000 nM; and `CCOc1cc(NC(=O)C(O)C2CC2)ccc1S(=O)(=O)Nc1cccc(OC(F)(F)F)c1` (centres unmarked) [Example 1.198], with at most 200 nM; and `CCOc1cc(NC(=O)C(CO)C2CCOC2)ccc1S(=O)(=O)Nc1cccc(OC(F)(F)F)c1` (centres unmarked) [Example 1.199], with at most 200 nM.
Then `CCOc1cc(NC(=O)c2cccnc2C)ccc1S(=O)(=O)Nc1cccc(OC(F)(F)F)c1` [Example 1.200], with at most 200 nM.
With `CCc1cc(NC(=O)[C@@H](CO)C(C)C)ccc1S(=O)(=O)Nc1cccc(OC(F)(F)F)c1` [Example 1.201], the half-maximal inhibitory concentration (IC50) is at most 200 nM.
Take `COc1cc(NC(=O)c2ccnn2C)ccc1S(=O)(=O)Nc1cccc(Cl)c1` [Example 1.202]: the IC50 is 2000 to 20000 nM.
On to `COc1c(S(=O)(=O)Nc2cccc(OC(F)(F)F)c2)ccc(NC(=O)c2ccnn2C)c1C` [Example 1.203], for which the IC50 lay in the range of 2000 to 20000 nM.
As to `CCOc1cc(NC(=O)C(CO)c2ccc(F)cc2)ccc1S(=O)(=O)Nc1cccc(OC(F)(F)F)c1` (centres unmarked) [Example 1.204], the IC50 is at most 200 nM.
Then `CCOc1cc(NC(=O)[C@@H](O)C(C)C)ccc1S(=O)(=O)Nc1ccc(C)c(OC(F)(F)F)c1` [Example 1.205], with at most 200 nM.

For the origin of these results see patent US20230339851A1, “CXCR6 SULFONAMIDE COMPOUNDS” (CHEMOCENTRYX, INC., priority 2022, published 2023).
